Test results reported in ChEMBL document CHEMBL1201862, “PubChem BioAssay data set” (2004).
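Step 1: Grow cells in 96-well plates. Step 2: Expose to compound for 48 hours at 5 concentrations. Step 3: Interpolate endpoints linearly; if unreached, use highest concentration. At the GI50, growth is halved.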 Activity calls are given as the source filed them. Rule as the data show it: active = GI50 up to about 1.1 µM and inactive = higher.

Experiments:
Assay in all cases: inhibition of tumour cell growth, NCI panel, 48 h
KM12 = system: KM12
COLO 205 = system: COLO 205
SW-620 = system: SW-620
CCRF-CEM = system: CCRF-CEM
SK-MEL-5 = system: SK-MEL-5
MCF7 = system: MCF7
SF-268 = system: SF-268
T47D = system: T47D
HCT-116 = system: HCT-116
NCI/ADR-RES = system: NCI/ADR-RES
NCI-H460 = system: NCI-H460
UACC-62 = system: UACC-62
EKVX = system: EKVX
HOP-92 = system: HOP-92
HT-29 = system: HT-29
U-251 = system: U-251
786-0 = system: 786-0
BT-549 = system: BT-549
RXF 393 = system: RXF 393
RPMI-8226 = system: RPMI-8226
OVCAR-3 = system: OVCAR-3
UO-31 = system: UO-31
Hs-578T = system: Hs-578T
MDA-MB-435 = system: MDA-MB-435
HOP-62 = system: HOP-62
NCI-H522 = system: NCI-H522
HCT-15 = system: HCT-15
NCI-H226 = system: NCI-H226
MDA-MB-231 = system: MDA-MB-231
SR = system: SR
PC-3 = system: PC-3
IGROV-1 = system: IGROV-1
A549 = system: A549
LOX IMVI = system: LOX IMVI
UACC-257 = system: UACC-257
SN12C = system: SN12C
K562 = system: K562
MOLT-4 = system: MOLT-4
SNB-75 = system: SNB-75
SNB-19 = system: SNB-19
CAKI-1 = system: CAKI-1
DU-145 = system: DU-145
NCI-H23 = system: NCI-H23
SF-295 = system: SF-295
ACHN = system: ACHN
Malme-3M = system: Malme-3M
SK-MEL-28 = system: SK-MEL-28
SK-OV-3 = system: SK-OV-3
M14 = system: M14
OVCAR-5 = system: OVCAR-5
OVCAR-4 = system: OVCAR-4
SK-MEL-2 = system: SK-MEL-2
MDA-N = system: MDA-N
A498 = system: A498
SF-539 = system: SF-539
OVCAR-8 = system: OVCAR-8
TK-10 = system: TK-10
HCC 2998 = system: HCC 2998
HL-60 = system: HL-60

COc1cc2c(cc1OCc1ccccc1)NC(=O)[C@@H]1CCCN1C2=O
GI50 (KM12): > 100 µM (inactive)
GI50 (COLO 205): > 100 µM (inactive)
GI50 (SW-620): > 100 µM (inactive)
GI50 (CCRF-CEM): > 100 µM (inactive)
GI50 (SK-MEL-5): > 100 µM (inactive)
GI50 (MCF7): > 100 µM (inactive)
GI50 (SF-268): > 100 µM (inactive)
GI50 (T47D): > 100 µM (inactive)
GI50 (HCT-116): > 100 µM (inactive)
GI50 (NCI/ADR-RES): > 100 µM (inactive)
GI50 (NCI-H460): > 100 µM (inactive)
GI50 (UACC-62): > 100 µM (inactive)
GI50 (EKVX): > 100 µM (inactive)
GI50 (HOP-92): > 100 µM (inactive)
GI50 (HT-29): > 100 µM (inactive)
GI50 (U-251): > 100 µM (inactive)
GI50 (786-0): > 100 µM (inactive)
GI50 (BT-549): > 100 µM (inactive)
GI50 (RXF 393): 82 µM (inactive)
GI50 (RPMI-8226): > 100 µM (inactive)
GI50 (OVCAR-3): > 100 µM (inactive)
GI50 (UO-31): > 100 µM (inactive)
GI50 (Hs-578T): > 100 µM (inactive)
GI50 (MDA-MB-435): > 100 µM (inactive)
GI50 (HOP-62): > 100 µM (inactive)
GI50 (NCI-H522): > 100 µM (inactive)
GI50 (HCT-15): > 100 µM
GI50 (NCI-H226): > 100 µM (inactive)
GI50 (MDA-MB-231): > 100 µM (inactive)
GI50 (SR): > 100 µM (inactive)
GI50 (PC-3): > 100 µM (inactive)
GI50 (IGROV-1): 58.9 µM (inactive)
GI50 (A549): > 100 µM (inactive)
GI50 (LOX IMVI): > 100 µM (inactive)
GI50 (UACC-257): > 100 µM (inactive)
GI50 (SN12C): > 100 µM (inactive)
GI50 (K562): > 100 µM (inactive)
GI50 (MOLT-4): > 100 µM (inactive)
GI50 (SNB-75): > 100 µM (inactive)
GI50 (SNB-19): > 100 µM (inactive)
GI50 (CAKI-1): > 100 µM (inactive)
GI50 (DU-145): > 100 µM (inactive)
GI50 (NCI-H23): > 100 µM (inactive)
GI50 (SF-295): > 100 µM (inactive)
GI50 (ACHN): > 100 µM (inactive)
GI50 (Malme-3M): > 100 µM (inactive)
GI50 (SK-MEL-28): > 100 µM (inactive)
GI50 (SK-OV-3): > 100 µM (inactive)
GI50 (M14): > 100 µM (inactive)
GI50 (OVCAR-5): > 100 µM (inactive)
GI50 (OVCAR-4): > 100 µM (inactive)
GI50 (SK-MEL-2): > 100 µM (inactive)
GI50 (MDA-N): > 100 µM (inactive)
GI50 (A498): > 100 µM (inactive)
GI50 (SF-539): > 100 µM (inactive)
GI50 (OVCAR-8): > 100 µM (inactive)
GI50 (TK-10): > 100 µM (inactive)
GI50 (HCC 2998): > 100 µM (inactive)

O=c1ccc2ccc(OP(=O)(O)O)cc2o1
GI50 (HL-60): > 100 µM (inactive)
GI50 (KM12): > 100 µM (inactive)
GI50 (COLO 205): > 100 µM (inactive)
GI50 (SW-620): > 100 µM (inactive)
GI50 (CCRF-CEM): > 100 µM (inactive)
GI50 (SK-MEL-5): > 100 µM (inactive)
GI50 (MCF7): > 100 µM (inactive)
GI50 (SF-268): > 100 µM (inactive)
GI50 (T47D): > 100 µM (inactive)
GI50 (HCT-116): > 100 µM (inactive)
GI50 (NCI/ADR-RES): > 100 µM (inactive)
GI50 (NCI-H460): > 100 µM (inactive)
GI50 (UACC-62): > 100 µM (inactive)
GI50 (EKVX): > 100 µM (inactive)
GI50 (HT-29): > 100 µM (inactive)
GI50 (U-251): > 100 µM (inactive)
GI50 (786-0): > 100 µM (inactive)
GI50 (BT-549): > 100 µM (inactive)
GI50 (RXF 393): > 100 µM (inactive)
GI50 (RPMI-8226): > 100 µM (inactive)
GI50 (OVCAR-3): > 100 µM (inactive)
GI50 (UO-31): > 100 µM (inactive)
GI50 (Hs-578T): > 100 µM (inactive)
GI50 (MDA-MB-435): > 100 µM (inactive)
GI50 (HOP-62): > 100 µM (inactive)
GI50 (NCI-H522): > 100 µM (inactive)
GI50 (HCT-15): > 100 µM
GI50 (NCI-H226): > 100 µM (inactive)
GI50 (MDA-MB-231): > 100 µM (inactive)
GI50 (SR): > 100 µM (inactive)
GI50 (PC-3): > 100 µM (inactive)
GI50 (IGROV-1): > 100 µM (inactive)
GI50 (A549): > 100 µM (inactive)
GI50 (LOX IMVI): > 100 µM (inactive)
GI50 (UACC-257): > 100 µM (inactive)
GI50 (SN12C): > 100 µM (inactive)
GI50 (K562): > 100 µM (inactive)
GI50 (MOLT-4): > 100 µM (inactive)
GI50 (SNB-75): > 100 µM (inactive)
GI50 (SNB-19): > 100 µM (inactive)
GI50 (CAKI-1): > 100 µM (inactive)
GI50 (DU-145): 93.1 µM (inactive)
GI50 (NCI-H23): > 100 µM (inactive)
GI50 (SF-295): > 100 µM (inactive)
GI50 (ACHN): > 100 µM (inactive)
GI50 (Malme-3M): > 100 µM (inactive)
GI50 (SK-MEL-28): > 100 µM (inactive)
GI50 (SK-OV-3): > 100 µM (inactive)
GI50 (M14): > 100 µM (inactive)
GI50 (OVCAR-5): > 100 µM (inactive)
GI50 (OVCAR-4): > 100 µM (inactive)
GI50 (SK-MEL-2): > 100 µM (inactive)
GI50 (MDA-N): > 100 µM (inactive)
GI50 (A498): > 100 µM (inactive)
GI50 (SF-539): > 100 µM (inactive)
GI50 (OVCAR-8): > 100 µM (inactive)
GI50 (TK-10): > 100 µM (inactive)
GI50 (HCC 2998): > 100 µM (inactive)
